# According to ChEMBL document CHEMBL4680185, “Discovery of novel cyclin-dependent kinase (CDK) and histone deacetylase (HDAC) dual inhibitors with potent in vitro and in vivo anticancer activity” (Eur J Med Chem, 2020):
# Activity calls are given as the source filed them. No cut-off for these calls is given here.
# Tests used:
# [1] = Cytotoxicity against mouse NIH/3T3 cells incubated for 72 hrs by CCK-8 assay; type: cell-based; settings: NIH3T3, 72 h
# HCT-116 [2] = test: Induction of apoptosis in human HCT116 cells assessed as number of apoptotic cells at 2 uM incubated for 48 hrs by annexin V-FITC/PI based flow cytometric analysis relative to control; type: functional
# [3] = target: Cyclin-dependent kinase 2 (Homo sapiens) (UniProt P24941); test: Inhibition of CDK2 in human A375 cells at 1 uM measured after 12 hr by DAPI staining based immunofluorescence analysis; type: cell-based; settings: A-375
# CDK1/Cyclin A = CDK1/Cyclin A (Homo sapiens, UniProt P06493); test: Inhibition of recombinant human full length CDK1/cyclin A2 expressed in Sf9 cells incubated for 10 mins by ADP-Glo reagent assay
# NCI-H460 [4] = test: Antimigratory activity against human H460 cells assessed as inhibition of cell migration at 0.5 uM measured after 48 hrs by cell scratch assay; type: functional, cell-based
# [5] = target: Cyclin-dependent kinase 7/ cyclin H (Homo sapiens, UniProt P50613); test: Inhibition of recombinant human full length CDK7/cyclin H1 expressed in Sf9 cells incubated for 10 mins by ADP-Glo reagent assay
# [6] = MRT (0 to infinity) in ICR mouse at 20 mg/kg, ip by LC-MS/MS analysis; type: ADME, organism-based; settings: in vivo
# HCT-116 [7] = test: cells; type: functional; settings: Homo sapiens, time 72 hrs, read-out: GI
# A-375 = test: Induction of ROS generation in human A375 cells at 1 uM measured after 24 hrs by fluorescence microscopic analysis
# [8] = Biovailability in ICR mouse at 20 mg/kg, ip; type: ADME, organism-based; settings: in vivo
# Histone deacetylase 2 = Histone deacetylase 2 (Homo sapiens, UniProt Q92769); test: Inhibition of human recombinant HDAC2 preincubated for 10 mins followed by addition of substrate fluor De Lys green measured after 30 mins by fluorescent plate reader analysis
# [9] = Cmax in ICR mouse at 20 mg/kg, ip by LC-MS/MS analysis; type: ADME, organism-based; parameters: route intraperitoneal, dose 20 mg/kg; settings: in vivo
# NCI-H460 [10] = test: Cell cycle arrest in human H460 cells assessed as increase in number of cells at G2/M phase at 0.5 to 2 uM incubated for 24 hrs by propidium iodide staining based flow cytometry; type: functional; settings: dose 0.5-2 µM
# SMMC-7721 = test: cells; type: functional, cell-based; settings: Homo sapiens, SMMC-7721, 72 h
# Description: Antiproliferative activity against human SMMC7721 cells assessed as inhibition of cell growth incubated for 72 hrs by CCK-8 assay
# Histone deacetylase 8 = target: T1, Histone deacetylase 8 (Homo sapiens, UniProt Q9BY41); test: Inhibition of human recombinant HDAC8 preincubated for 10 mins followed by substrate addition measured after 30 mins by fluorescent plate reader analysis
# T1 sequence (Q9BY41 whole entry): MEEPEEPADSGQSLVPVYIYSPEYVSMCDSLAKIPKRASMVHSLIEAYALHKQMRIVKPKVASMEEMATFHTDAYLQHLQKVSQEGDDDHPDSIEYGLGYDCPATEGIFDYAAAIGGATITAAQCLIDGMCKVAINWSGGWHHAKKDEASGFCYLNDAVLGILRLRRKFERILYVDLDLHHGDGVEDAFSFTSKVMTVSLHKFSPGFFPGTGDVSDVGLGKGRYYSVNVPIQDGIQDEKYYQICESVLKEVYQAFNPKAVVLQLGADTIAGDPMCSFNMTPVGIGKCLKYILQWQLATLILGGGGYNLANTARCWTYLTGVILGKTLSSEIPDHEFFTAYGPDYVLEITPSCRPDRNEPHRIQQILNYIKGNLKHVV
# CDK2/Cyclin A2 = CDK2/Cyclin A2 (Homo sapiens, UniProt P24941); test: Inhibition of recombinant human full length CDK2/cyclin A2 incubated for 10 mins by ADP-Glo reagent assay; type: protein-complex assay
# HCT-116 [11] = test: Antitumor activity against human HCT116 cells xenografted in BALB/C nude mouse assessed reduction in tumor growth at 12.5 mg/kg, ip once daily for 21 days relative to control; type: functional; settings: HCT-116, ip, 504 h, time 21 day, read-out: TGI
# [12] = Toxicity in BALB/C nude mouse xenografted with HCT116 cells assessed as effect on body weight at 12.5 to 25 mg/kg, ip once daily for 21 days; type: organism-based; settings: in vivo, 504 h, dose 12.5-25 mg/kg, time 21 day
# HCT-116 [13] = test: Antitumor activity against human HCT116 cells xenografted in BALB/C nude mouse assessed reduction in tumor growth at 25 mg/kg, ip once daily for 21 days relative to control; type: functional; settings: HCT-116, ip, 504 h, time 21 day, read-out: TGI
inhibition [3],IC50 (CDK1/Cyclin A),IC50 [5],MRT inf [6],bioavailability [8],IC50 (Histone deacetylase 2),Cmax [9],IC50 (SMMC-7721),IC50 (Histone deacetylase 8),IC50 (CDK2/Cyclin A2),SMILES,IC50 [1],Activity (HCT-116 [2]),inhibition (NCI-H460 [4]),inhibition of growth at 8 µM (HCT-116 [7]),Activity (A-375),Activity (NCI-H460 [10]),inhibition in vivo at 12.5 mg/kg (HCT-116 [11]),Activity [12],inhibition in vivo at 25 mg/kg (HCT-116 [13])
Active,12.6 nM,> 1000 nM,2.36 h,27.8%,0.24 nM,2170 ng/mL,5220 nM,> 1000 nM,0.56 nM,Nc1ccccc1NC(=O)Cc1ccc(NC(=O)c2n[nH]cc2NC(=O)c2c(Cl)cccc2Cl)cc1,4640 nM,77.1%,Active,78%,Active,Active,–,–,–
Active,8.63 nM,> 1000 nM,3.31 h,63.6%,0.25 nM,7570 ng/mL,7760 nM,> 1000 nM,0.3 nM,Nc1ccccc1NC(=O)c1ccc(CNC(=O)c2n[nH]cc2NC(=O)c2c(Cl)cccc2Cl)cc1,4470 nM,60.6%,Active,73.8%,Active,Active,37%,Non-Toxic,51%
